Assays:
Assay type in all cases: in vivo
[1] = system: Myzus persicae; assay: Critical concentration test, foliar insecticidal activity against sucking pests (leaf dip, cabbage); conditions: Myzus persicae on cabbage
Source text: Activity of Folia-Insecticidal Formulations Against Sucking Pests
The insecticidal activity was examined using the critical concentration test. From each of the test preparations, an aqueous dilution series is made by diluting the individual concentrations by the factor 5.
To determine any synergistic activity, weakly active concentrations of chloronicotinyl compounds are combined with various active compound concentrations of Tracer (Spinosad).
The test plants used are cabbage plants at the one-leaf stage which are infested by Myzus persicae (green peach aphid). The shoots or leaves with the aphids are dipped for approximately 3 seconds into the respective liquors. The experiments are subsequently placed in a greenhouse at 21° C. and 65% relative atmospheric humidity.
Evaluation for mortality is carried out after 2 and 7 days.

[2] = system: Phaedon cochleariae larvae; assay: Critical concentration test / root-systemic action (cabbage, soil treatment)
Procedure: (§1) Critical Concentration Test/Root-Systemic Action
To produce a suitable preparation of active compound, 1 part by weight of active compound is mixed with the stated amount of solvent, the stated amount of emulsifier is added and the concentrate is diluted with water to the desired concentration.
The active compound preparation is mixed intimately with soil. The concentration of the active compound in the preparation is of virtually no importance, only the amount by weight of active compound per unit volume of soil, which is given in ppm (=mg/l), being decisive. The treated soil is filled into 500 ml pots, 8 cabbage seeds are placed at a depth of approximately 1 cm, the hole is filled and the soil surface is pressed down gently.
After a further 3 days, the test is evaluated by estimating the leaf-feeding in the treated and in the untreated plant. The effect is 100% if, compared with the untreated control, only […] feeding damage is observed; it is 0% when the entire cabbage has been eaten.

[3] = system: Aphis fabae; assay: Critical concentration test / root-systemic action (broad beans, soil treatment); conditions: 0.035 ppm in soil
Procedure: as §1
To produce a suitable preparation of active compound, 1 part by weight of active compound is mixed with a stated amount of solvent, the stated amount of emulsifier is added and the concentrate is diluted with water to the desired concentration.
The active compound preparation is mixed intimately with soil. The concentration of the active compound in the preparation is of virtually no importance, only the amount by weight of active compound per unit volume of soil, which is given in ppm (=mg/l), being decisive. The treated soil is filled into 250 ml pots and the pots are planted with pre-germinated broad beans. In this manner, the active compound can be taken up from the soil by the roots of the plants and transported into the leaves.
After a further 7 days, the test is evaluated by estimating the dead animals. The root-systemic effect of the active compound is deduced from the destruction figures. It is 100% when all the test animals have been killed and 0% when just as many test insects are still alive as in the untreated control.

[4] = compound (III) alone 0.00016% a.i., evaluation after 2 days
[5] = compound (III) alone 0.00016% a.i., evaluation after 7 days
[6] = compound (III) alone 0.0008% a.i., evaluation after 2 days
[7] = compound (III) alone 0.0008% a.i., evaluation after 7 days

| Structure (SMILES) | kill [1, 4] [%] | kill [1, 5] [%] | kill [1, 6] [%] | kill [1, 7] [%] | Degree of destruction in % at active compound concentrations ([2]; 2.50 ppm in soil) [ppm = 0%] | Degree of destruction in % at active compound concentrations [3] [ppm = 50%] | Degree of destruction in % at active compound concentrations ([2]; 1.25 ppm in soil) [ppm = 0%] | Degree of destruction in % at active compound concentrations ([2]; 5.00 ppm in soil) [ppm = 0%] | Degree of destruction in % at active compound concentrations ([2]; 0.30 ppm in soil) |
| --- | --- | --- | --- | --- | --- | --- | --- | --- | --- |
| N#C/N=C1\SCCN1Cc1ccc(Cl)nc1 [Compound (III l)] | 8 | 0 | 85 | 38 | 2.50 | – | – | – | – |
| O=[N+]([O-])/N=C1\NCCN1Cc1ccc(Cl)nc1 [Compound (IIIa)] | 18 | 2 | 90 | 78 | – | 0.035 | 1.25 | – | – |
| C/C(=N\C#N)N(C)Cc1ccc(Cl)nc1 [Compound (IIIe)] | – | – | – | – | – | – | – | 5.00 | – |
| CN1COCN(Cc2cnc(Cl)s2)/C1=N/[N+](=O)[O-] [Compound (IIIg)] | 0 | 0 | 79 | 70 | – | – | – | – | 0.30 ppm = 50% |
| CN/C(=N\[N+](=O)[O-])NCc1cnc(Cl)s1 [Compound (IIIk)] | 10 | 2 | 48 | 28 | – | – | – | – | 0.30 ppm = 0% |
